This test concerns the target T1, aromatase (cytochrome P450 aromatase) (Homo sapiens, UniProt P11511).
T1 construct: Human placentas were used; from tissue; host or cells: human placenta, microsomes (105,000 g pellet)
T1 sequence (P11511 1-503): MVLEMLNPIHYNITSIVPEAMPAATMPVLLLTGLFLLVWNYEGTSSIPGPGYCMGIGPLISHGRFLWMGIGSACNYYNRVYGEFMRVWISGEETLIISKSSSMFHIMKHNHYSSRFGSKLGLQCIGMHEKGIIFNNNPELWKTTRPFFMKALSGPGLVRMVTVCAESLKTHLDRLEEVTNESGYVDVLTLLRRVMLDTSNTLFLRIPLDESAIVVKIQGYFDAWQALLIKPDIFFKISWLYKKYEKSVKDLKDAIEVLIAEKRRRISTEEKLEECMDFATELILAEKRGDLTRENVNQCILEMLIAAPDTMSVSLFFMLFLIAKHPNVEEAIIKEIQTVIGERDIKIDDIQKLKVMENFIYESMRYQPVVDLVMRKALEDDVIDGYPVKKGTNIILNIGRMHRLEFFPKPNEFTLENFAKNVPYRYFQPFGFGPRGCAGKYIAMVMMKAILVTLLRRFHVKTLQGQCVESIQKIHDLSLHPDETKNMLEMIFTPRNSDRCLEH
Nature of the test: Aromatase inhibition in human placental microsomes (tritiated water release from 1-2-(^3H)-androstenedione). Conditions: 25 micrograms protein per test, 60 nM androstene-dione substrate, NADPH, pH 7.2, 37° C., 10 minutes, read-out: IC50 (concentration of inhibitor necessary to decrease by 50% the enzymatic activity). The format is biochemical. As for the experimental part:
Inhibition dependent on the concentration (measurement of the IC50 =concentration of the inhibitor necessary to reduce the enzymatic activity by 50%). Human placentas were used which one hour or more after birth were washed, perfused with physiological serum (5 liters) via the umbilical vein and then frozen at -40° C.
The placentas were thawed at 4° C., then homogenized (1:3) in a 10 mM phosphate buffer, pH=7.0, containing 100 mM of potassium chloride (KCl), 10 mM of dithiothreitol (DTT), 10 mM of ethylenediaminetetra-aceticacid (EDTA), 40 mM of nicotinamide and 250 mM of sucrose. The homogenates were then subjected to various stages of centrifugation until the "9000 g" supernatant was obtained (corresponding to cytosol and to endoplasmic reticulum). This supernatant was then subjected to an ultracentrifugation stage (90 minutes, 105,000 g) to obtain the microsome deposit. […] The protein concentration of the microsome suspension was determined by the BRADFORD method (BRADFORD, Anal. Biochem., Vol. 72 (1976), p. 248). […]
The enzymatic reaction was then very quickly started by the addition of 10 microliters of reduced nicotinamide adenine dinucleotide phosphate (NADPH) dissolved in water. […] After centrifugation, and for each tube, 100 microliters of supernatant was removed and counted in the presence of scintillating liquid. […]

For the compound `C[C@]12CCC(=O)C(SCF)=C1CC[C@@H]1[C@@H]2CC[C@]2(C)C(=O)CC[C@@H]12` [Example 1, 4-fluoromethylthio-Δ^4-androstene-3,17-dione], the IC50 stood at 70 nM.

In the case of `C[C@]12CCC(=O)C(SCCl)=C1CC[C@@H]1[C@@H]2CC[C@]2(C)C(=O)CC[C@@H]12` [Example 2, 4-Chloromethylthio-Δ^4-androstene-3,17-dione], the IC50 worked out at 75 nM.

These data come from US4988684A, “Novel 4-alkylthio-steroids” (Roussel Uclaf, priority 1988, dated 1991).
